Patent US10780094B2, “Use of carbonic anhydrase inhibitors for treatment of neurological and psychiatric disorders” (New York University, priority 2016, dated 2020)

What was measured:
[1] = biological target: T1, Aβ42 and Aβ40-Q22 (Homo sapiens, UniProt P05067, E693Q); test: Thioflavin T binding assay of Aβ aggregation; settings: 100 or 300 μM MTZ; aggregation up to 3 days
T1 construct: purchased James I. Elliott at Yale University (custom chemical peptide synthesis)
Experimental: Binding of the different Aβ peptides to Thioflavin-T was monitored by fluorescence evaluation, as described (Fossati et al., 2010; Walsh et al., 1999). Briefly, after peptide aggregation at 50 μM concentration in culture media in the presence or absence of MTZ, 6 μl aliquots from each of the time-points were added to 184 μl of 50 mM Tris-HCl buffer, pH 8.5, and 10 μl of 0.1 mM Thioflavin-T (Sigma). Fluorescence was recorded for 300 s in a LS-50B luminescence spectrometer (Perkin Elmer, Waltham, Mass.) with excitation and emission wavelengths of 435 and 490 nm (slit width 10 nm), respectively, as described (Solito et al., 2009; Viana et al., 2009).

[2] = system: Glioma cells; test: Aβ-induced mitochondrial Cytochrome C release; type: cell-based, human
Experimental: (§1) Both SH-SY5Y cells and Glioma cells were plated on glass chamber slides (Thermo Fisher Scientific, Rochester, N.Y.). Slides were pre-coated with poly-D-lysine for SH-SY5Y cells. After seeding, cells were allowed to attach for 1 day prior to treatment with Aβ in the presence or absence of MTZ for 24 hours. Cells were then washed with PBS, fixed with 4% paraformaldehyde (10 min, RT) and blocked for 1 hour with 20 mg/ml BSA in PBS containing 0.3% Triton X-100 (PBST). Slides were further incubated with mouse monoclonal anti-CytC antibody (BD Biosciences; 1:200 in PBST containing 5 mg/ml BSA; 2 h, RT) followed by Alexa Fluor 488-conjugated anti-mouse IgG (Life Technologies, Grand Island, N.Y.) 1:200 in PBST with 5 mg/ml BSA for 1 h at RT, as previously described (Fossati et al., 2013). Fluorescence signals were visualized in a Zeiss LSM 510 laser scanning confocal/Confocor2 microscope using a 40×DIC oil immersion objective and LSM 510 software; acquired images were imported into ImageJ (National Institute of Health; http://rsbweb.nih.gov/ij/).
(§2) Subcellular distribution of CytC in amyloid-challenged SH-SY5Y and glioma cells was determined in mitochondrial and cytoplasmic protein extracts prepared using Mitochondria Isolation Kit (MITOISO2, Sigma) following the manufacturer's specifications. Briefly, after amyloid challenge in the presence and absence of Methazolamide, as above, cells were collected by trypsinization, resuspended in 10 mM HEPES, pH 7.5, containing 200 mM mannitol, 70 mM sucrose, 1 mM EGTA added of Protease Inhibitor Cocktail, and homogenized with the aid of a Dounce glass homogenizer. Cell homogenates were centrifuged to remove unbroken cells and nuclei (600×g, 5 min, 4° C.) and supernatants further centrifuged at 11,000×g (5 min, 4° C.) to subfractionate mitochondria. Supernatants, representing the cytosolic fractions as well as mitochondrial fractions were analyzed by CytC ELISA and WB.
(§3) The concentration of CytC in cytosolic and mitochondrial fractions was quantitated by solid phase sandwich ELISA (Quantikine ELISA, human Cytochrome C Immunoassay, R&D Systems) as described by the manufacturer. Prior to the assay, fractions containing cytoplasmic proteins were concentrated on Vivaspin 500 centrifugal concentrators (GE HealthCare, molecular weight cut off 5000), mitochondrial pellets were resuspended in Cell Lysis Buffer provided with the kit, and total protein of the respective fractions was evaluated by BCA protein assay (Thermo Fisher Scientific/Pierce). […] After washing away unbound proteins, wells were further incubated with an HRP-linked monoclonal antibody anti-human CytC, color developed with tetramethylbenzinine peroxidase substrate, and evaluated through quantitation of the Absorbance at 450 nm. […]

[3] = system: SH-SY5Y cells; test: Aβ-induced mitochondrial Cytochrome C release; type: cell-based, human
Experimental: as §1, §2, §3

[4] = system: SH-SY5Y and D3 cells; test: Aβ-induced cell death pathways (caspase 3 and 9 activation, CytC release, apoptosis); type: cell-based, human
Experimental: SH-SY5Y and D3 cells were plated on 15 mm optical borosilicate poly-L-lysine-coated sterile glass covers (ThermoFisher, Waltham, Mass., US) at a 70% confluence. After 24 hours, cells were treated with the peptides, the drugs or the different combinations of both of them, rinsed in PBS 1×, and fixed with 4% paraformaldehyde for 20 minutes. After that, the coverslips were washed once for 5 minute with PBS 1×, room temperature and twice for 5 minutes with cold PBS 1×. Cells were then permeabilized and blocked for 1 h with BSA 20 mg/mL+Triton 0.3% on PBS and incubated with the anti-active caspase-3 antibody, on PBS containing BSA 5 mg/mL, for 2 h. Next, cells were washed three times for 5 min each with PBS 1× and incubated with the secondary antibody (Alexa Fluor 488 anti-mouse antibody), at a 1:200 dilution in PBS containing BSA 5 mg/mL for an additional hour in the dark. Cells were then washed three times in the dark with 1 mL of PBS 1× and mounted on cover slips (ThermoFisher, Waltham, Mass., US). After mounting, cells were imaged, using a Nikon Eclipse Ti inverted microscope with a 20× objective (Nikon, Chiyoda. Tokyo, Japan).
Cells were plated at a confluence of 10.000 cells per well in 96-wells microplate luminescence microtiter (ThermoFisher, Waltham, Mass., US). The day after, cells were treated with the peptides and/or drugs for the experimental times. After that, caspase-Glo 9 assay was performed, following the protocol provided from the manufacturer. Luminescence was measured using a FlexStation 3 Multi-Mode Microplate Reader (Molecular devices, Sunnyvalem Calif., US).
20.000 cells per well were plated on 24-wells plates. The day after, cells were treated with peptides and/or drugs, following the experimental conditions.

[5] = 100 μM MTZ together with Aβ42 10 μM, 24 hours
[6] = MTZ 100 and 300 μM, Aβ42 10 μM, 24 h

Structure (SMILES)	Aβ fibrillization by Thioflavin T fluorescence [1]	release of CytC (immunocytochemistry) [2, 5]	release of CytC by ELISA and Western blot in mitochondrial and cytosolic fractions [2, 6]	release of CytC (immunocytochemistry) [3, 5]	release of CytC by ELISA and Western blot in mitochondrial and cytosolic fractions [3, 6]	caspase activation and CytC release induced by Aβ ([4]; ATZ)	effective concentration lower than that of MTZ ([4]; ATZ versus MTZ) [times]	nuclear chromatin condensation indicative of apoptosis ([4]; Aβ challenge, FIGS. 16A-16B)
CC(=O)/N=c1/sc(S(N)(=O)=O)nn1C [MTZ, methazolamide]	no significant difference in fibrillization	prevented	inhibition	prevented	inhibition			
CC(=O)Nc1nnc(S(N)(=O)=O)s1 [ATZ, acetazolamide]						completely reverting	10	prevented
